Measurements taken from US6500222B2, “Diureides and their use” (priority 1999, dated 2002).

Key:
ryegrass = assay: Crop production experiment in Mitscherlich containers with ryegrass as test crop; settings: 2.4 g of N per container
[1] = test system: mustard seedlings (Sinapis alba, 'Maxi'); assay: Mustard seedling test on plant tolerance, growth and yield
[2] = N fertilization 100 mg/container, DAT 13
[3] = N fertilization 100 mg/container, DAT 23
[4] = N fertilization 200 mg/container, DAT 13
[5] = N fertilization 200 mg/container, DAT 23
[6] = N fertilization 400 mg/container, DAT 13
[7] = N fertilization 400 mg/container, DAT 23

Substance	Dry-matter production (ryegrass; day 16 post-fertilization) [g/container]	Nitrogen uptake (ryegrass; day 16 post-fertilization) [mg/container]	Dry-matter production (ryegrass; day 30 post-fertilization) [g/container]	Nitrogen uptake (ryegrass; day 30 post-fertilization) [mg/container]	Dry-matter production (ryegrass; day 45 post-fertilization) [g/container]	Nitrogen uptake (ryegrass; day 45 post-fertilization) [mg/container]	Dry-matter production (ryegrass; day 58 post-fertilization) [g/container]	Nitrogen uptake (ryegrass; day 58 post-fertilization) [mg/container]	Dry-matter production (ryegrass; day 78 post-fertilization) [g/container]	Nitrogen uptake (ryegrass; day 78 post-fertilization) [mg/container]	Dry-matter production (ryegrass; day 125 post-fertilization) [g/container]	Nitrogen uptake (ryegrass; day 125 post-fertilization) [mg/container]	"Greenness" (%) (N supply) 100% = dark green [1, 2]	"Greenness" (%) (N supply) 100% = dark green [1, 3]	FW yield [1, 3] [g/container]	N content in the DM (%) [1, 3] [%]	N uptake in the shoot [1, 3] [mg/container]	"Greenness" (%) (N supply) 100% = dark green [1, 4]	"Greenness" (%) (N supply) 100% = dark green [1, 5]	FW yield [1, 5] [g/container]	other results
Urea [reference compound]	7.7	480	5.6	311	8.6	404	8.6	410	5.9	127	1.4	33	100	100	19.6	4.3	84	100	100	1.6	Dry-matter production (ryegrass; day 100 post-fertilization): 2.3 g/container; Nitrogen uptake (ryegrass; day 100 post-fertilization): 50 mg/container; Dry-matter production (ryegrass; day 174 post-fertilization): 1.4 g/container; Nitrogen uptake (ryegrass; day 174 post-fertilization): 27 mg/container; N content in the DM (%) [1, 5]: 6.5%; N uptake in the shoot [1, 5]: 10 mg/container
succinic acid diureide [Compound 1B]	4	114	1.7	50	1.3	36	2.2	69	4.6	161	9.6	281	–	–	–	–	–	–	–	–	–
malonic acid diureide [Compound 1A]	5.7	185	2.5	97	3.8	130	3.1	119	5.4	180	9.3	283	–	–	–	–	–	–	–	–	Dry-matter production (ryegrass; day 100 post-fertilization): 6.3 g/container; Nitrogen uptake (ryegrass; day 100 post-fertilization): 204 mg/container; Dry-matter production (ryegrass; day 174 post-fertilization): 7.2 g/container; Nitrogen uptake (ryegrass; day 174 post-fertilization): 154 mg/container; Dry-matter production (ryegrass; day 252 post-fertilization): 4.5 g/container; Nitrogen uptake (ryegrass; day 252 post-fertilization): 145 mg/container
fumaric acid diureide [Compound 1C]	4.2	112	1.9	60	2.1	69	3.4	108	3.3	104	5.1	138	–	–	–	–	–	–	–	–	–
bis(N′-potassium sulfamate)succinic diureide [IaA]	–	–	–	–	–	–	–	–	–	–	–	–	30	30	10.4	1.5	27	30	30	10.4	N content in the DM (%) [1, 5]: 1.7%; N uptake in the shoot [1, 5]: 28 mg/container; "Greenness" (%) (N supply) 100% = dark green [1, 6]: 30%; "Greenness" (%) (N supply) 100% = dark green [1, 7]: 30%; FW yield [1, 7]: 10.6 g/container; N content in the DM (%) [1, 7]: 1.9%; N uptake in the shoot [1, 7]: 29 mg/container
bis(N′-potassium sulfamate)malonic acid diureide [IaB]	–	–	–	–	–	–	–	–	–	–	–	–	70	30	7.1	3.1	46	80	85	4.7	N content in the DM (%) [1, 5]: 5.3%; N uptake in the shoot [1, 5]: 80 mg/container; "Greenness" (%) (N supply) 100% = dark green [1, 6]: 85%; "Greenness" (%) (N supply) 100% = dark green [1, 7]: 85%; FW yield [1, 7]: 3.7 g/container; N content in the DM (%) [1, 7]: 6.6%; N uptake in the shoot [1, 7]: 90 mg/container
